Assay results: ChEMBL document CHEMBL4507259 (2021)

What was measured:
[1] = molecular target: Type-2 angiotensin II receptor (Homo sapiens) (UniProt P50052); experiment: AT2 (h) CEREP ligand profiling; details: filed as agonist, Compound concentration 10.0 uM
[2] = molecular target: T1, Muscarinic acetylcholine receptor M5 (Homo sapiens) (UniProt P08912); experiment: M5 (h) CEREP ligand profiling; details: filed as antagonist, Compound concentration 10.0 uM
T1 sequence (whole entry): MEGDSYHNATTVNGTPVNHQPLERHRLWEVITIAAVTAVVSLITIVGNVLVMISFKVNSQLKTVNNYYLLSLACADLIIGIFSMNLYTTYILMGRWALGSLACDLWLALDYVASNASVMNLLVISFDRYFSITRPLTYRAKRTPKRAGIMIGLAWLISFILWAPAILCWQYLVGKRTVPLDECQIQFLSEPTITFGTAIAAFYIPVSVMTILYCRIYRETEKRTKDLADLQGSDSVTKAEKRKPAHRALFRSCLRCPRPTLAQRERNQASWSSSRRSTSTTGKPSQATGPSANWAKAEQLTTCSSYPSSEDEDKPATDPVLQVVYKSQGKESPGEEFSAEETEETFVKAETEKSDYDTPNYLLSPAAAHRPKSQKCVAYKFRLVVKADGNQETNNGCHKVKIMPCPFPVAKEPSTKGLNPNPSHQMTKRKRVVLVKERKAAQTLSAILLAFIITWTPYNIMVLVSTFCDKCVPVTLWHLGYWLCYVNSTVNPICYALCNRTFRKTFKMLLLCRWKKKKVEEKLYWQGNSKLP

[3] = molecular target: T2, Muscarinic acetylcholine receptor M1 (Homo sapiens) (UniProt P11229); experiment: M1 (h) CEREP ligand profiling; details: filed as antagonist, Compound concentration 10.0 uM
T2 sequence (whole entry): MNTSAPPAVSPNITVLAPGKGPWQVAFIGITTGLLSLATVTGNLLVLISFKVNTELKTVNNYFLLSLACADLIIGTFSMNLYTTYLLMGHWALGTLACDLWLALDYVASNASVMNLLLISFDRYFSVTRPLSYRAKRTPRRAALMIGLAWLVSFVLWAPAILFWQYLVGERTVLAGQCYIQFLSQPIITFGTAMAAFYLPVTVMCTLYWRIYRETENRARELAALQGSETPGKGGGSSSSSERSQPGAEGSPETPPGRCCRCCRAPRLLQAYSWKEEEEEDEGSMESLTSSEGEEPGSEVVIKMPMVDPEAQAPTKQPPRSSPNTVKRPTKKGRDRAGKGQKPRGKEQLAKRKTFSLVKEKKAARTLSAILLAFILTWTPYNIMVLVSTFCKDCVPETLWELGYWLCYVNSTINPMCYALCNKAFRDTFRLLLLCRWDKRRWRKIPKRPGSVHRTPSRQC

[4] = molecular target: Vasoactive intestinal polypeptide receptor 1 (Homo sapiens) (UniProt P32241); experiment: VPAC1 (VIP1) (h) CEREP ligand profiling; details: filed as agonist, Compound concentration 10.0 uM
[5] = system: Tyrosine-protein kinase ABL1 (Homo sapiens), P00519 [Y253F]; details: Compound concentration 1000.0 nM
[6] = molecular target: Tyrosine-protein kinase ABL1 (Homo sapiens) (UniProt P00519); details: Compound concentration 1000.0 nM
[7] = molecular target: Atypical kinase COQ8B, mitochondrial (Homo sapiens) (UniProt Q96D53); details: Compound concentration 1000.0 nM
[8] = molecular target: Casein kinase II subunit alpha (Homo sapiens) (UniProt P68400); details: Compound concentration 1000.0 nM
[9] = molecular target: Death-associated protein kinase 2 (Homo sapiens) (UniProt Q9UIK4); details: Compound concentration 1000.0 nM
[10] = system: Receptor-type tyrosine-protein kinase FLT3 (Homo sapiens), P36888 [N841I]; details: Compound concentration 1000.0 nM
[11] = molecular target: G protein-coupled receptor kinase 3 (Homo sapiens) (UniProt P35626); details: Compound concentration 1000.0 nM
[12] = molecular target: G protein-coupled receptor kinase 4 (Homo sapiens) (UniProt P32298); details: Compound concentration 1000.0 nM
G protein-coupled receptor kinase 4 (Homo sapiens), sequence (P32298 whole entry, looked up): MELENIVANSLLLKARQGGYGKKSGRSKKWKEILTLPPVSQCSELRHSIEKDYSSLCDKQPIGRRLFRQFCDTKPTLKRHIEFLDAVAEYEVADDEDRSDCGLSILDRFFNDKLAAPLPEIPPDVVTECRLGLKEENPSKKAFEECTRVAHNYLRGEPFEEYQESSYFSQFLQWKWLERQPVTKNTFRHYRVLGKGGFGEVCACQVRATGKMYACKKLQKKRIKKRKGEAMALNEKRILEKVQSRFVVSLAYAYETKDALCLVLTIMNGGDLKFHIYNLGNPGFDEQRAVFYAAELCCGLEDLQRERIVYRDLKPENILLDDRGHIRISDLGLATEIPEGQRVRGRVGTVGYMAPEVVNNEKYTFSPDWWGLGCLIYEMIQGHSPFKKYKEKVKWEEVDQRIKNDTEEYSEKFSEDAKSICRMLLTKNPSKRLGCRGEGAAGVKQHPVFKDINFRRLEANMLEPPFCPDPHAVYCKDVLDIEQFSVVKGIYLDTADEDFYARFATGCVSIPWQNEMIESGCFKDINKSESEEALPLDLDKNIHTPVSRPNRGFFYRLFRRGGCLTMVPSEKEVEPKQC

[13] = molecular target: Rhodopsin kinase GRK7 (Homo sapiens) (UniProt Q8WTQ7); details: Compound concentration 1000.0 nM
[14] = molecular target: Homeodomain-interacting protein kinase 3 (Homo sapiens) (UniProt Q9H422); details: Compound concentration 1000.0 nM
[15] = molecular target: Mitogen-activated protein kinase kinase kinase 2 (Homo sapiens) (UniProt Q9Y2U5); details: Compound concentration 1000.0 nM
Mitogen-activated protein kinase kinase kinase 2 (Homo sapiens), sequence (Q9Y2U5 whole entry): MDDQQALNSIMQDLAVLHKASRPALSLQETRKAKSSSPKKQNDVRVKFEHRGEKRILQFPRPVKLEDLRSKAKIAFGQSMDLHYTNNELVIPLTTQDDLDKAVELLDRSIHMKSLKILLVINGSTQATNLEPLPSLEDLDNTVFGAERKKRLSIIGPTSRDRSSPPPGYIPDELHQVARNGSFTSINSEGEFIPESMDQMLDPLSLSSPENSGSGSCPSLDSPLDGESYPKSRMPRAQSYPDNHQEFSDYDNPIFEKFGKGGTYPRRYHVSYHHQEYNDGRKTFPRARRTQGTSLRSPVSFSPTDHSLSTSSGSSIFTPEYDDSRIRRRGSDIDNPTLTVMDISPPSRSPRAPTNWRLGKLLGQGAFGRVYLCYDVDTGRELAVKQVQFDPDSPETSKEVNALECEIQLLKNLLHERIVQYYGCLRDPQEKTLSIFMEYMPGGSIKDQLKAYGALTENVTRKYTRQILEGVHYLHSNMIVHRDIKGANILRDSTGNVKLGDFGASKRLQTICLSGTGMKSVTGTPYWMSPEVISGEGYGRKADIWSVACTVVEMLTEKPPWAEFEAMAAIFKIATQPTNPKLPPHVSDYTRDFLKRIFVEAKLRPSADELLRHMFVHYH

[16] = molecular target: Serine/threonine-protein kinase MARK2 (Homo sapiens) (UniProt Q7KZI7); details: Compound concentration 1000.0 nM
[17] = molecular target: MAP/microtubule affinity-regulating kinase 4 (Homo sapiens) (UniProt Q96L34); details: Compound concentration 1000.0 nM
[18] = molecular target: Serine/threonine-protein kinase Nek7 (Homo sapiens) (UniProt Q8TDX7); details: Compound concentration 1000.0 nM
[19] = molecular target: Phosphatidylinositol 4-phosphate 3-kinase C2 domain-containing subunit beta (Homo sapiens) (UniProt O00750); details: Compound concentration 1000.0 nM
Phosphatidylinositol 4-phosphate 3-kinase C2 domain-containing subunit beta (Homo sapiens), sequence (O00750 whole entry, the tested form may be a part): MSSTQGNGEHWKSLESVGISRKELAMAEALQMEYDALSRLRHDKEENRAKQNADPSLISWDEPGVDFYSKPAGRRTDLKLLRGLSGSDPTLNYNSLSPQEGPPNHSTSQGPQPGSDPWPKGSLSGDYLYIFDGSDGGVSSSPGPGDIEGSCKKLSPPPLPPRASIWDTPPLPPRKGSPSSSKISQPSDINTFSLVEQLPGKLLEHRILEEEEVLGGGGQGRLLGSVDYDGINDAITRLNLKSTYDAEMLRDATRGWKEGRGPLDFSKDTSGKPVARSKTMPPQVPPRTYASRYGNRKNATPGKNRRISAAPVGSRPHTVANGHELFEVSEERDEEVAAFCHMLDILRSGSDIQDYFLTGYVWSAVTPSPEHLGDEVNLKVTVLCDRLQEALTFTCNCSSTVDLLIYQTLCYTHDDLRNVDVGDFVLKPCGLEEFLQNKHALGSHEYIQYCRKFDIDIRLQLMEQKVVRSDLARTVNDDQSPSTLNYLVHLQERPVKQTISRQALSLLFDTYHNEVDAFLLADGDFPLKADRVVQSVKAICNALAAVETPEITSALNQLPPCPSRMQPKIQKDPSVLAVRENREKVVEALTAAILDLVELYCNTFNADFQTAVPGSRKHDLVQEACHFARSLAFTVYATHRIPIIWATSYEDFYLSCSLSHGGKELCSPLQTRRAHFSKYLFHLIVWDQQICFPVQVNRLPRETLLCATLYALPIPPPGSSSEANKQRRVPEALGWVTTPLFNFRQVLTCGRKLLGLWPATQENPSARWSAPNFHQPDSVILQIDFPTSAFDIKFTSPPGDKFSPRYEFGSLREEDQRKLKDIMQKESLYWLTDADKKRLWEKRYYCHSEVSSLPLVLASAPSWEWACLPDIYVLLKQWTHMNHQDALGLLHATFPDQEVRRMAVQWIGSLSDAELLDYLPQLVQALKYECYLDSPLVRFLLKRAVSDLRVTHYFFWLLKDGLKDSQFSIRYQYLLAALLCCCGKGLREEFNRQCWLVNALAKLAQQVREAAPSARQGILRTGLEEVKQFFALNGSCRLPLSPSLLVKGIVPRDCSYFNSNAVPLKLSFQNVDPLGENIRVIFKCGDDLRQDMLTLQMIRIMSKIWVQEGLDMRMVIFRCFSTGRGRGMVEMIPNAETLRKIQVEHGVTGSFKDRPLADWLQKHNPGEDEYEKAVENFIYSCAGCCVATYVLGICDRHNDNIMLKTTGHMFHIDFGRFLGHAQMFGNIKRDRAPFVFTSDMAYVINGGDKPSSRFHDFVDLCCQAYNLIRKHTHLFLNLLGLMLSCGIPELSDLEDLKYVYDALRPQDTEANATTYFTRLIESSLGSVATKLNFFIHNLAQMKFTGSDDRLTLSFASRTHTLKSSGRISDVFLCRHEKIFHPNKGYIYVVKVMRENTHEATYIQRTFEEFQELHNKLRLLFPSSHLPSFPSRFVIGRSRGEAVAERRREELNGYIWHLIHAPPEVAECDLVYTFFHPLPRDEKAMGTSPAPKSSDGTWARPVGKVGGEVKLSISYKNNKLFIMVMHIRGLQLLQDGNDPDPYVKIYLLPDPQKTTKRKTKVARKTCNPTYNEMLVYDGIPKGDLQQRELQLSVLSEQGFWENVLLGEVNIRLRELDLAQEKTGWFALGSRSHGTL

[20] = molecular target: Phosphatidylinositol 4-phosphate 5-kinase type-1 gamma (Homo sapiens) (UniProt O60331); details: Compound concentration 1000.0 nM
[21] = molecular target: Serine/threonine-protein kinase PLK3 (Homo sapiens) (UniProt Q9H4B4); details: Compound concentration 1000.0 nM
[22] = molecular target: Protein kinase C delta type (Homo sapiens) (UniProt Q05655); details: Compound concentration 1000.0 nM
Protein kinase C delta type (Homo sapiens), sequence (Q05655 whole entry, looked up): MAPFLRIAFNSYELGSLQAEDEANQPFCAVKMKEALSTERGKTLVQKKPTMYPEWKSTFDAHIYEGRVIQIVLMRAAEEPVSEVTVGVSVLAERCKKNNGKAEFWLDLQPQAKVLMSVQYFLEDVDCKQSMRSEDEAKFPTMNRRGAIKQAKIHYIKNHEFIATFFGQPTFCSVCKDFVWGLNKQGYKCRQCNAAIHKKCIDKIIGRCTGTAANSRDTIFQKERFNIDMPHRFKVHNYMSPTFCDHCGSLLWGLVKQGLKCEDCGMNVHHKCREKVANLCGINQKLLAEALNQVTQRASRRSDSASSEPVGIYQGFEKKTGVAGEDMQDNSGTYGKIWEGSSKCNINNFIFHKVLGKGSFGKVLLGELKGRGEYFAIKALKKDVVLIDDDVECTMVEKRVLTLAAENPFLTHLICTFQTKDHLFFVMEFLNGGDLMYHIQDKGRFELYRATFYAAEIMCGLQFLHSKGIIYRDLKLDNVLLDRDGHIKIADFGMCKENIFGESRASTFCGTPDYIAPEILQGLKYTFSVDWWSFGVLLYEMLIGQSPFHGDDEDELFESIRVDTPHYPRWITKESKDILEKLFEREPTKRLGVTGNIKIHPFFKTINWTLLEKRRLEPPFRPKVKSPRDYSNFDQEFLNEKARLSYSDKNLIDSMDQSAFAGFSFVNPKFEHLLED

[23] = molecular target: Ribosomal protein S6 kinase alpha-5 (Homo sapiens) (UniProt O75582); details: Compound concentration 1000.0 nM
[24] = molecular target: SRSF protein kinase 1 (Homo sapiens) (UniProt Q96SB4); details: Compound concentration 1000.0 nM
SRSF protein kinase 1 (Homo sapiens), sequence (Q96SB4 whole entry): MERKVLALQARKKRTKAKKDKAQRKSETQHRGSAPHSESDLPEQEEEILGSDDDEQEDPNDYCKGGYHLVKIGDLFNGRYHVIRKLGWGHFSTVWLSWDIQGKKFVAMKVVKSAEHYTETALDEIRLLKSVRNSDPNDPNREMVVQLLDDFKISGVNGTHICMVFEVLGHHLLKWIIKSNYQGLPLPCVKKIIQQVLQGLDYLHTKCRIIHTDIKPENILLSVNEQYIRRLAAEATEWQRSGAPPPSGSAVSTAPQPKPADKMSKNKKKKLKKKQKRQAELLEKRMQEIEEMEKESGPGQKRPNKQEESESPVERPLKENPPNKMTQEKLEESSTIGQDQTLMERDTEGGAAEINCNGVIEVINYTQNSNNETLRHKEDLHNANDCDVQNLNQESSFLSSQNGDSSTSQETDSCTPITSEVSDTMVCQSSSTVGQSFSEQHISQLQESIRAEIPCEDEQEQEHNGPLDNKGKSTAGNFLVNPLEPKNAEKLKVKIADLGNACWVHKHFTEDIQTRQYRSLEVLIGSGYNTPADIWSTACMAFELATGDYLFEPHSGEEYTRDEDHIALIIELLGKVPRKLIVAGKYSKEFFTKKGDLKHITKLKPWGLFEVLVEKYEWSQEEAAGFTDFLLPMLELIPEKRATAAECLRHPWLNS

[25] = molecular target: STE20/SPS1-related proline-alanine-rich protein kinase (Homo sapiens) (UniProt Q9UEW8); details: Compound concentration 1000.0 nM
[26] = molecular target: Serine/threonine-protein kinase TAO3 (Homo sapiens) (UniProt Q9H2K8); details: Compound concentration 1000.0 nM
[27] = molecular target: Tyrosine-protein kinase Yes (Homo sapiens) (UniProt P07947); details: Compound concentration 1000.0 nM
Tyrosine-protein kinase Yes (Homo sapiens), sequence (P07947 2-543 limits assumed): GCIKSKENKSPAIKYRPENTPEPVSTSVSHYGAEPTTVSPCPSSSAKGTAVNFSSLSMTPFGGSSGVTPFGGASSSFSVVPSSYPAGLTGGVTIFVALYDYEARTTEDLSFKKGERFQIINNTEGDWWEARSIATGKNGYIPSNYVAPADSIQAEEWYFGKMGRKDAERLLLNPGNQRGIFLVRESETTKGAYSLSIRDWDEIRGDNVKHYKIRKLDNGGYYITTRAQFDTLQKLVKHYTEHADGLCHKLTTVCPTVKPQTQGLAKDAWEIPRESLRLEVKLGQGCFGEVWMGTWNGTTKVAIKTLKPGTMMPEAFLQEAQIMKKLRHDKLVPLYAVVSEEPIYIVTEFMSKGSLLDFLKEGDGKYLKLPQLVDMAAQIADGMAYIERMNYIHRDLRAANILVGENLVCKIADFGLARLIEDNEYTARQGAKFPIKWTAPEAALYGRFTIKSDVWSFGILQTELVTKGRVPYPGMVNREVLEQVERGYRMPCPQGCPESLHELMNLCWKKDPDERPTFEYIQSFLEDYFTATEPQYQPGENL

[28] = molecular target: Sigma non-opioid intracellular receptor 1 (Homo sapiens) (UniProt Q99720); details: Compound concentration 10.0 uM

Type-2 angiotensin II receptor (Homo sapiens), sequence (P50052 whole entry): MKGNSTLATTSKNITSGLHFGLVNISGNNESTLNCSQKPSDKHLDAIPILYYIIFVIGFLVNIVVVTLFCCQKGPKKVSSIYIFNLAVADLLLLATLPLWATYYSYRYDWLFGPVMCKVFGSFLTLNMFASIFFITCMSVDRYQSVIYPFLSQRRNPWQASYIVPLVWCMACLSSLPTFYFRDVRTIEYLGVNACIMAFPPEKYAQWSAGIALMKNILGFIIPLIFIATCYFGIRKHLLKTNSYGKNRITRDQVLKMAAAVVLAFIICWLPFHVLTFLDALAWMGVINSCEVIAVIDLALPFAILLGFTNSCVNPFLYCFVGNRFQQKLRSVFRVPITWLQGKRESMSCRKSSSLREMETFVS

CNC(=O)Nc1ccc2c(c1)CC[C@@]21OC(=O)N(CC(=O)N(Cc2ccc(F)cc2)[C@@H](C)C(F)(F)F)C1=O [A-485]
inactive: inhibition [1] 12% | inhibition [2] 8% | inhibition [3] -2% | inhibition [4] -5% | residual activity [5] 81% | residual activity [6] 72% | residual activity [7] 100% | residual activity [8] 63% | residual activity [9] 92% | residual activity [10] 100% | residual activity [11] 100% | residual activity [12] 98% | residual activity [13] 83% | residual activity [14] 73% | residual activity [15] 100% | residual activity [16] 100% | residual activity [17] 84% | residual activity [18] 91% | residual activity [19] 100% | residual activity [20] 100% | residual activity [21] 86% | residual activity [22] 76% | residual activity [23] 63% | residual activity [24] 95% | residual activity [25] 100% | residual activity [26] 74% | residual activity [27] 76% | inhibition [28] 34.5%

CNC(=O)Nc1ccc2c(c1)[C@@]1(CC2)OC(=O)N(CC(=O)N(Cc2ccc(F)cc2)[C@@H](C)C(F)(F)F)C1=O [A-486]
inactive: inhibition [1] 2% | inhibition [2] -8% | inhibition [3] -8% | inhibition [4] -8% | residual activity [5] 100% | residual activity [6] 84% | residual activity [7] 95% | residual activity [8] 60% | residual activity [9] 100% | residual activity [10] 100% | residual activity [11] 100% | residual activity [12] 100% | residual activity [13] 85% | residual activity [14] 90% | residual activity [15] 100% | residual activity [16] 100% | residual activity [17] 92% | residual activity [18] 100% | residual activity [19] 99% | residual activity [20] 100% | residual activity [21] 84% | residual activity [22] 75% | residual activity [23] 72% | residual activity [24] 100% | residual activity [25] 100% | residual activity [26] 82% | residual activity [27] 85% | inhibition [28] 17.7%
